Laboratory results as given in patent US8912176B2 (Evotec AG, priority 2009, dated 2014).

Molecular target: human H3 receptor (Homo sapiens, UniProt Q9Y5N1)
Experiment: cAMP quantification assay for human H3 receptor (DiscoveRx cAMP XS+)

Chain of human H3 receptor (Q9Y5N1 whole entry): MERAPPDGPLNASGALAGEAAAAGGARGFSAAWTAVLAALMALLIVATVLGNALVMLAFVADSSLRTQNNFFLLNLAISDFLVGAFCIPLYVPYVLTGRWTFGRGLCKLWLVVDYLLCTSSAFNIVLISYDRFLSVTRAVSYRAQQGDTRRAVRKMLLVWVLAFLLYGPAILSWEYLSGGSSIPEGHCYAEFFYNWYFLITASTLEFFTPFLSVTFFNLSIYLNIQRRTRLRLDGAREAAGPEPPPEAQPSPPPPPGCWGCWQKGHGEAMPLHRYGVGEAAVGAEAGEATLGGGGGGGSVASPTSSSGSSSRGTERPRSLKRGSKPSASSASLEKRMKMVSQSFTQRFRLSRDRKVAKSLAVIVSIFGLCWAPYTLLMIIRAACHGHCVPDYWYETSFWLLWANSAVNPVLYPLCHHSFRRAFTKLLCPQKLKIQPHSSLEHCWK

SMILES | IC50
O=C(C1CN(C(=O)N2CCCCC2)C1)N1CCCN(C2CCC2)CC1 [Example 2, 1-cyclobutyl-4-{[1-(piperidin-1-ylcarbonyl)azetidin-3-yl]carbonyl}-1,4-diazepane] | < 50 nM
CC1(C)COC(c2ccc(C(=O)N3CC(C(=O)N4CCCN(C5CCC5)CC4)C3)cc2)=N1 [Example 42, 1-cyclobutyl-4-[(1-{[4-(4,4-dimethyl-4,5-dihydro-1,3-oxazol-2-yl)phenyl]carbonyl}azetidin-3-yl)carbonyl]-1,4-diazepane] | < 50 nM
O=C(c1ccc(-n2cccn2)cc1)N1CC(C(=O)N2CCCN(C3CCC3)CC2)C1 [Example 40, 1-cyclobutyl-4-[(1-{[4-(1H-pyrazol-1-yl)phenyl]carbonyl}azetidin-3-yl)carbonyl]-1,4-diazepane] | < 50 nM
O=C(NCc1ccc(F)cc1)N1CC(C(=O)N2CCCN(C3CCC3)CC2)C1 [Example 58, 3-[(4-cyclobutyl-1,4-diazepan-1-yl)carbonyl]-N-(4-fluorobenzyl)azetidine-1-carboxamide] | < 50 nM
O=C(C1CN(C(=O)N2CCc3ccccc3C2)C1)N1CCCN(C2CCC2)CC1 [Example 65, 2-({3-[(4-cyclobutyl-1,4-diazepan-1-yl)carbonyl]azetidin-1-yl}carbonyl)-1,2,3,4-tetrahydroisoquinoline] | < 50 nM
O=C(C1CN(C(=O)N2CCOCC2)C1)N1CCCN(C2CCC2)CC1 [Example 3, 1-cyclobutyl-4-{[1-(morpholin-4-ylcarbonyl)azetidin-3-yl]carbonyl}-1,4-diazepane] | < 50 nM
O=C(C1CN(C(=O)C2CCC(F)(F)CC2)C1)N1CCCN(C2CCC2)CC1 [Example 29, 1-cyclobutyl-4-({1-[(4,4-difluorocyclohexyl)carbonyl]azetidin-3-yl}carbonyl)-1,4-diazepane] | < 50 nM
O=C(NCC1CCOCC1)N1CC(C(=O)N2CCCN(C3CCC3)CC2)C1 [Example 57, 3-[(4-cyclobutyl-1,4-diazepan-1-yl)carbonyl]-N-(tetrahydro-2H-pyran-4-ylmethyl)azetidine-1-carboxamide] | < 50 nM
O=C(c1ccc(Cn2cncn2)cc1)N1CC(C(=O)N2CCCN(C3CCC3)CC2)C1 [Example 74, 1-cyclobutyl-4-[(1-{[4-(1H-1,2,4-triazol-1-ylmethyl)phenyl]carbonyl}azetidin-3-yl)carbonyl]-1,4-diazepane] | < 50 nM
CCN1CCCN(C(=O)C2CN(C(=O)c3ccc(C)nc3)C2)CC1 [Example 80, 1-ethyl-4-({1-[(6-methylpyridin-3-yl)carbonyl]azetidin-3-yl}carbonyl)-1,4-diazepane] | < 50 nM
O=C(c1ccc(-n2ccnc2)nc1)N1CC(C(=O)N2CCCN(C3CCC3)CC2)C1 [Example 12, 1-cyclobutyl-4-[(1-{[6-(1H-imidazol-1-yl)pyridin-3-yl]carbonyl}azetidin-3-yl)carbonyl]-1,4-diazepane] | < 50 nM
O=C(CN1CCC(F)(F)CC1)N1CC(C(=O)N2CCCN(C3CCC3)CC2)C1 [Example 20, 1-cyclobutyl-4-({1-[(4,4-difluoropiperidin-1-yl)acetyl]azetidin-3-yl}carbonyl)-1,4-diazepane] | < 50 nM
Cc1ccc(C(=O)N2CC(C(=O)N3CCCN(C4CCC4)CC3)C2)cn1 [Example 10, 1-cyclobutyl-4-({1-[(6-methylpyridin-3-yl)carbonyl]azetidin-3-yl}carbonyl)-1,4-diazepane] | < 50 nM
N#Cc1ccc(OCC(=O)N2CC(C(=O)N3CCCN(C4CCC4)CC3)C2)cc1 [Example 22, 4-(2-{3-[(4-cyclobutyl-1,4-diazepan-1-yl)carbonyl]azetidin-1-yl}-2-oxoethoxy)benzonitrile] | < 50 nM
Cc1nc(-c2ccc(C(=O)N3CC(C(=O)N4CCCN(C5CCC5)CC4)C3)cc2)no1 [Example 37, 1-cyclobutyl-4-[(1-{[4-(5-methyl-1,2,4-oxadiazol-3-yl)phenyl]carbonyl}azetidin-3-yl)carbonyl]-1,4-diazepane] | < 50 nM
O=C(C1CN(S(=O)(=O)C2CCCCC2)C1)N1CCCN(C2CCC2)CC1 [Example 24, 1-cyclobutyl-4-{[1-(cyclohexylsulfonyl)azetidin-3-yl]carbonyl}-1,4-diazepane] | < 50 nM
O=C(c1ccc(OC2CCOCC2)cc1)N1CC(C(=O)N2CCCN(C3CCC3)CC2)C1 [Example 11, 1-cyclobutyl-4-[(1-{[4-(tetrahydro-2H-pyran-4-yloxy)phenyl]carbonyl}azetidin-3-yl)carbonyl]-1,4-diazepane] | < 50 nM
O=C(CC1CC1)N1CC(C(=O)N2CCCN(C3CCC3)CC2)C1 [Example 32, 1-cyclobutyl-4-{[1-(cyclopropylacetyl)azetidin-3-yl]carbonyl}-1,4-diazepane] | < 50 nM
COC(=O)c1ccc(C(=O)N2CC(C(=O)N3CCCN(C4CCC4)CC3)C2)cn1 [Example 7, methyl 5-({3-[(4-cyclobutyl-1,4-diazepan-1-yl)carbonyl]azetidin-1-yl}carbonyl)pyridine-2-carboxylate] | < 50 nM

SMILES | IC50
O=C(CN1CCOCC1)N1CC(C(=O)N2CCCN(C3CCC3)CC2)C1 [Example 17, 1-cyclobutyl-4-{[1-(morpholin-4-ylacetyl)azetidin-3-yl]carbonyl}-1,4-diazepane] | < 50 nM
O=C(CC1CCCCC1)N1CC(C(=O)N2CCCN(C3CCC3)CC2)C1 [Example 33, 1-cyclobutyl-4-{[1-(cyclohexylacetyl)azetidin-3-yl]carbonyl}-1,4-diazepane] | < 50 nM
O=C(c1ccc(Oc2ccccc2)cc1)N1CC(C(=O)N2CCCN(C3CCC3)CC2)C1 [Example 39, 1-cyclobutyl-4-({1-[(4-phenoxyphenyl)carbonyl]azetidin-3-yl}carbonyl)-1,4-diazepane] | < 50 nM
Cc1ccc(C(=O)N2CC(C(=O)N3CCCN(CC4CC4)CC3)C2)cn1 [Example 83, 1-(cyclopropylmethyl)-4-({1-[(6-methylpyridin-3-yl)carbonyl]azetidin-3-yl}carbonyl)-1,4-diazepane] | 100 to 5000 nM
Cc1ccc(C(=O)N2CC(C(=O)N3CCN(C4CCC4)CC3)C2)cn1 [Example 87, 1-cyclobutyl-4-({1-[(6-methylpyridin-3-yl)carbonyl]azetidin-3-yl}carbonyl)piperazine] | 100 to 5000 nM
CN(CC1CCOCC1)C(=O)N1CC(C(=O)N2CCCN(C3CCC3)CC2)C1 [Example 61, 3-[(4-cyclobutyl-1,4-diazepan-1-yl)carbonyl]-N-methyl-N-(tetrahydro-2H-pyran-4-ylmethyl)azetidine-1-carboxamide] | < 50 nM
CC(C)(O)c1ccc(C(=O)N2CC(C(=O)N3CCCN(C4CCC4)CC3)C2)cn1 [Example 76, 2-[5-({3-[(4-cyclobutyl-1,4-diazepan-1-yl)carbonyl]azetidin-1-yl}carbonyl)pyridin-2-yl]propan-2-ol] | < 50 nM
Cc1noc(-c2ccc(C(=O)N3CC(C(=O)N4CCCN(C5CCC5)CC4)C3)cc2)n1 [Example 41, 1-cyclobutyl-4-[(1-{[4-(3-methyl-1,2,4-oxadiazol-5-yl)phenyl]carbonyl}azetidin-3-yl)carbonyl]-1,4-diazepane] | < 50 nM
Cc1cc(C(=O)N2CC(C(=O)N3CCCN(C4CCC4)CC3)C2)ccn1 [Example 75, 1-cyclobutyl-4-({1-[(2-methylpyridin-4-yl)carbonyl]azetidin-3-yl}carbonyl)-1,4-diazepane] | < 50 nM
O=C(CN1CCCCC1)N1CC(C(=O)N2CCCN(C3CCC3)CC2)C1 [Example 16, 1-cyclobutyl-4-{[1-(piperidin-1-ylacetyl)azetidin-3-yl]carbonyl}-1,4-diazepane] | < 50 nM
O=C(Cn1cccn1)N1CC(C(=O)N2CCCN(C3CCC3)CC2)C1 [Example 15, 1-cyclobutyl-4-{[1-(1H-pyrazol-1-ylacetyl)azetidin-3-yl]carbonyl}-1,4-diazepane] | < 50 nM
CC(C)c1ccc(C(=O)N2CC(C(=O)N3CCCN(C4CCC4)CC3)C2)cc1 [Example 38, 1-cyclobutyl-4-[(1-{[4-(1-methylethyl)phenyl]carbonyl}azetidin-3-yl)carbonyl]-1,4-diazepane] | < 50 nM
CS(=O)(=O)c1ccc(C(=O)N2CC(C(=O)N3CCCN(C4CCC4)CC3)C2)cc1 [Example 55, 1-cyclobutyl-4-[(1-{[4-(methylsulfonyl)phenyl]carbonyl}azetidin-3-yl)carbonyl]-1,4-diazepane] | < 50 nM
Cc1cc(C)n(-c2ccc(C(=O)N3CC(C(=O)N4CCCN(C5CCC5)CC4)C3)cc2)n1 [Example 30, 1-cyclobutyl-4-[(1-{[4-(3,5-dimethyl-1H-pyrazol-1-yl)phenyl]carbonyl}azetidin-3-yl)carbonyl]-1,4-diazepane] | < 50 nM
O=C(CN1CCS(=O)(=O)CC1)N1CC(C(=O)N2CCCN(C3CCC3)CC2)C1 [Example 18, 1-cyclobutyl-4-({1-[(1,1-dioxidothiomorpholin-4-yl)acetyl]azetidin-3-yl}carbonyl)-1,4-diazepane] | < 50 nM
Cc1ccc(CC(=O)N2CC(C(=O)N3CCCN(C4CCC4)CC3)C2)cn1 [Example 43, 1-cyclobutyl-4-({1-[(6-methylpyridin-3-yl)acetyl]azetidin-3-yl}carbonyl)-1,4-diazepane] | < 50 nM
O=C(C1CN(S(=O)(=O)c2ccccc2)C1)N1CCCN(C2CCC2)CC1 [Example 26, 1-cyclobutyl-4-{[1-(phenylsulfonyl)azetidin-3-yl]carbonyl}-1,4-diazepane] | < 50 nM
CC(=O)N1CC(C(=O)N2CCCN(C3CCC3)CC2)C1 [Example 70, 1-[(1-acetylazetidin-3-yl)carbonyl]-4-cyclobutyl-1,4-diazepane] | < 50 nM
N#Cc1ccc(C(=O)N2CC(C(=O)N3CCCN(C4CCC4)CC3)C2)cc1 [Example 6, 4-({3-[(4-cyclobutyl-1,4-diazepan-1-yl)carbonyl]azetidin-1-yl}carbonyl)benzonitrile] | < 50 nM
